From US10730836B2, “Forms of apremilast” (Johnson Matthey Public Limited Company, priority 2016, dated 2020)
Each block holds one molecule with its values, some of them ahead of it.

How the values were obtained:
[1] = Solid form stability under stressed conditions (45° C., relative humidity>95%); assay type: physicochemical; conditions: under 45° C. and humid conditions (relative humidity>95%)
Description: (§1) Apremilast Form H, a solvate, is a unique crystalline phase. […] FIG. 1 is a representative XPRD pattern for a representative sample of apremilast Form H made according to Example 1. Apremilast Form H is stable under stressed conditions, i.e. at under 45° C. and humid conditions (relative humidity>95%).
as §1, with “I,” for “H,”, “2” for “1”, “XRPD” for “XPRD”, “I” for “H”, “2.” for “1.”

[2] = Drying under vacuum at 45° C. (solid form change); assay type: physicochemical; conditions: dried under vacuum at 45° C.
Description: Apremilast Form J, a solvate, is a unique crystalline phase. […] FIG. 3 is a representative XRPD pattern for a representative sample of apremilast Form J made according to Example 3.
(§2) Apremilast Form M, a solvate, is a unique crystalline phase. FIG. 5 is a representative XRPD pattern for a representative sample of apremilast Form M made according to Example 5.
[…] The resulting solids are analyzed by XRPD and identified as apremilast Form K.

phosphodiesterase (PDE4) = conditions: cited from earlier work
[3] = system: human rheumatoid synovial cells; conditions: cited from earlier work
[4] = Moisture uptake on exposure to air (DSC/TGA); assay type: physicochemical; conditions: DSC thermogram and TGA plot show water in sample
Description: DSC data were collected using a TA Instruments Q10 DSC. Approximately, samples (2-8 mg) were placed in unsealed but covered hermetic alodined aluminum sample pans and scanned from 30 to 300° C. at a rate of 10° C./min under a nitrogen purge of 50 mL/min.
TGA data were collected using a TA Instruments TGA Q500. Approximately, samples (5-10 mg) were placed in an open, pre-tared aluminum sample pan and scanned from 25 to 300° C. at a rate of 10° C./min using a nitrogen purge at 60 mL/min.
(§3) Apremilast Form K, an anhydrous form, is a unique crystalline phase. […] FIG. 4 is a representative XRPD pattern for a representative sample of apremilast Form K made according to Example 4.

[5] = Exposure to humidity (XRPD); assay type: physicochemical; conditions: exposed to high humidity
Description: (§4) XRPD patterns were obtained using a Bruker D8 Advance equipped with a Cu Kα radiation source (λ=1.54° A), a 9-position sample holder and a LYNXEYE super speed detector. Samples were placed on zero-background, silicon plate holders for analysis. One skilled in the art would recognize that the ° 2θ values and the relative intensity values are generated by performing a peak search on the measured data and the d-spacing values are calculated by the instrument from the ° 2θ values using Bragg's equation. One skilled in the art would further recognize that the relative intensity for the measured peaks may vary as a result of sample preparation, orientation and instrument used, for example.
as §3, §2

[6] = Prolonged slurry (form conversion, XRPD); assay type: physicochemical; conditions: XRPD FIG. 6
Description: as §4, §2

SMILES: CCOc1cc([C@@H](CS(C)(=O)=O)N2C(=O)c3cccc(NC(C)=O)c3C2=O)ccc1OC [Apremilast Form J, (+)-2-[1-(3-ethoxy-4-methoxyphenyl)-2-methylsulfonylethyl]-4-acetylaminoisoindoline-1,3-dione]
solid form behaviour when dried under vacuum [2]: loses formic acid when dried under vacuum at 45 °C and undergoes a form change, resulting in the anhydrous Form K

SMILES: CCOc1cc([C@@H](CS(C)(=O)=O)N2C(=O)c3cccc(NC(C)=O)c3C2=O)ccc1OC [Apremilast, (+)-2-[1-(3-ethoxy-4-methoxyphenyl)-2-methylsulfonylethyl]-4-acetylaminoisoindoline-1,3-dione]
PDE4 inhibition (phosphodiesterase (PDE4)): inhibits PDE4 | inhibition of spontaneous production of TNF-alpha [3]: inhibits spontaneous production of TNF-alpha

SMILES: CCOc1cc([C@@H](CS(C)(=O)=O)N2C(=O)c3cccc(NC(C)=O)c3C2=O)ccc1OC [Form M, (+)-2-[1-(3-ethoxy-4-methoxyphenyl)-2-methylsulfonylethyl]-4-acetylaminoisoindoline-1,3-dione]
solid form behaviour when dried under vacuum [2]: tends to lose some of the acetic acid when dried under vacuum at 45 °C and results in a semi-crystalline form | form conversion upon prolonged slurry [6]: converts to apremilast

The remaining lines, values ahead:

stability under stressed conditions [1]: stable
SMILES: CCOc1cc([C@@H](CS(C)(=O)=O)N2C(=O)c3cccc(NC(C)=O)c3C2=O)ccc1OC [Apremilast Form H, (+)-2-[1-(3-ethoxy-4-methoxyphenyl)-2-methylsulfonylethyl]-4-acetylaminoisoindoline-1,3-dione]

moisture uptake when exposed to air [4]: picks up moisture | form change when exposed to humidity [5]: does not undergo a significant change
SMILES: CCOc1cc([C@@H](CS(C)(=O)=O)N2C(=O)c3cccc(NC(C)=O)c3C2=O)ccc1OC [Form K, (+)-2-[1-(3-ethoxy-4-methoxyphenyl)-2-methylsulfonylethyl]-4-acetylaminoisoindoline-1,3-dione]
